Source: patent US4701458A (priority 1985, dated 1987)
Values joined by “and” are separate entries in the source; they are usually repeats but may differ in a detail not shown here. Identical values can stand only once. “Also recorded” adds a separate entry of the source. Like-named read-outs stand apart in the source and are kept apart here.

Columns and labels:
[1] = test system: Escherichia coli heat-stable enterotoxin (ST)-induced intestinal fluid secretion; format: in vivo, suckling mice
[2] = biological target: guanylate cyclase (Rattus norvegicus, UniProt P23897); assay: biochemical; set-up: species or system Sprague-Dawley rat; settings: for % Inhibition of ST-activated guanylate cyclase activity: ST-activated (6 units/ml); for % Inhibition of ST-activated guanylate cyclase activity / inhibition at 1000 µM: 1.0 mM; for inhibition at 10000 µM: 10 mM; for inhibition at 100 µM: 0.1 mM
[3] = test system: 8-bromo cyclic GMP-induced intestinal fluid secretion; set-up: species or system suckling mice; settings: mouse, in vivo
[4] = test system: basal intestinal fluid secretion; set-up: species or system suckling mice; settings: mouse, in vivo
[5] = test system: ST; settings: cited from earlier work
[6] = test system: guanylate cyclase; settings: cited from earlier work
[7] = test system: intestinal fluid secretion; settings: in vivo; cited from earlier work
[8] = read-out: % Inhibition of ST-activated guanylate cyclase activity, ST-activated (6 units/ml)
[9] = read-out: % Inhibition of basal guanylate cyclase activity, basal
[10] = read-out: inhibition of ST-activated guanylate cyclase activity, ST-activated (6 ST units/ml)
[11] = read-out: inhibition of basal guanylate cyclase activity, basal

Chain of guanylate cyclase (Rattus norvegicus, UniProt P23897) (P23897 23-1072): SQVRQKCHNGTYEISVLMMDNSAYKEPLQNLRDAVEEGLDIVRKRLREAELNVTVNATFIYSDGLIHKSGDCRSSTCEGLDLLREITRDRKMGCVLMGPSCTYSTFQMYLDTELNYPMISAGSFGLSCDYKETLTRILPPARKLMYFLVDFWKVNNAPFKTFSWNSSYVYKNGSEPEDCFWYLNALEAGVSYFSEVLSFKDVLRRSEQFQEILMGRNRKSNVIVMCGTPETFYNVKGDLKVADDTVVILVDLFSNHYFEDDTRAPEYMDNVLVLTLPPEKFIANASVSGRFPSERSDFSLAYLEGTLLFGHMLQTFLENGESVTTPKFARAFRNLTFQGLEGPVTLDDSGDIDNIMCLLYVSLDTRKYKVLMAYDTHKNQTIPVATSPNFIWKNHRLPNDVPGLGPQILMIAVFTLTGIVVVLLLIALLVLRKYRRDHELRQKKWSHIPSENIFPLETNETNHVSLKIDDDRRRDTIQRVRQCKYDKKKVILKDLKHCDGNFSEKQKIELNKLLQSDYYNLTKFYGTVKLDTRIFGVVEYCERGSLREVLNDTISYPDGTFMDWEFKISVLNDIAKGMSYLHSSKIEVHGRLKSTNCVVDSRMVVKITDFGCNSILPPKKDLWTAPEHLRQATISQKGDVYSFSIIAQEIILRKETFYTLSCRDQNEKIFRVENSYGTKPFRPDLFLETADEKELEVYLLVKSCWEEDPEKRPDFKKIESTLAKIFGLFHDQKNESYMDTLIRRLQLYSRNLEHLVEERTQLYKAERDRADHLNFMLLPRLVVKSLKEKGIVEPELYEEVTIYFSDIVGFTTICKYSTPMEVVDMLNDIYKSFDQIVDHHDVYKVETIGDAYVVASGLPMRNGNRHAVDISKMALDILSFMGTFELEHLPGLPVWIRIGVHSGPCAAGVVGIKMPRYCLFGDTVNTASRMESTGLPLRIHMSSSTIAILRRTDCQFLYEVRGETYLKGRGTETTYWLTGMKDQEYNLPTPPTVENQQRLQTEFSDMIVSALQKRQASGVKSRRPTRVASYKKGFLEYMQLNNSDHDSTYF

c1ccc2c(CC3=NCCN3)cccc2c1 [Naphazoline, naphazoline]
effect against ST (in words) ([1]; 10 mM): effective | intestinal-fluid ratio ± SEM, experiment #1 ([1]; mouse, in vivo): .150 ± .005 | intestinal-fluid ratio ± SEM, experiment #2 ([1]; mouse, in vivo): .123 ± .005 | death of mice (N = 3): ALL DEAD | margin to lethal dose (in words) (mouse, in vivo): only one log less than a lethal dose

NCCCNCCSP(=O)(O)O [S-2-(3-aminopropylamino) ethyl phosphorothioic acid]
Ratio ± SEM, ST-induced ([1]; mouse, in vivo): 0.1034 ± 0.008 and 0.0685 ± 0.003

COc1ccc2cc3[n+](cc2c1OC)CCc1cc2c(cc1-3)OCO2 [berberine]
intestinal-fluid ratio ± SEM ([1]; mouse, in vivo): .122 ± 0.003 | intestinal-fluid ratio, pre-treatment ([1]; mouse, in vivo): .122 ± .004

N[C@@H](CS)C(=O)O [L-cysteine]
intestinal fluid ratio (intestinal weight to remaining body weight), ST-induced ([1]; mouse, in vivo): 0.0680±0.001 and 0.0877±0.006 | effect on ST-induced fluid responses (in words) ([1]; mouse, in vivo, sc): neither D- or L-cysteine inhibited ST-induced fluid responses | % Inhibition of ST-activated guanylate cyclase activity [2]: 11% | effect on basal guanylate cyclase activity (in words) ([2]; 1 mM): did not alter basal guanylate cyclase activity; also recorded: None of the other sulfhydryl compounds (1 mM) affected basal enzyme activity | inhibition at 1000 µM [2, 8]: 11 to 21% | inhibition at 1000 µM [2, 9]: 0% | Intestinal:Body Wt. Ratio, 8-bromo cyclic GMP-induced [3]: 0.1097 ± 0.004 | Intestinal:Body Wt. Ratio, 8-bromo cyclic GMP-induced ([3]; sc): 0.1051 ± 0.006 | effect on basal intestinal fluid level (in words) ([4]; sc): No effect on basal fluid level

CC(=O)N[C@@H](CS)C(=O)O [Acetylcysteine, acetylcysteine]
effect on ST-induced responses (in words) ([1]; mouse, in vivo): No significant inhibition | intestinal fluid ratio (intestinal weight to remaining body weight), ST-induced ([1]; mouse, in vivo): 0.0796±0.005 and 0.1061±0.005 | effect on ST-induced secretion (in words) ([1]; mouse, in vivo, sc): no inhibition | intestinal fluid ratio (intestinal weight to remaining body weight), ST-induced ([1]; mouse, in vivo, sc): 0.0804±0.003 | % Inhibition of ST-activated guanylate cyclase activity [2]: 14% | % Inhibition of ST-activated guanylate cyclase activity ([2]; listed as acetylcysteine): 15% | effect on basal guanylate cyclase activity (in words) ([2]; 1 mM): did not alter basal guanylate cyclase activity; also recorded: None of the other sulfhydryl compounds (1 mM) affected basal enzyme activity | inhibition at 1000 µM [2, 8]: 11 to 21% | inhibition at 1000 µM [2, 9]: 0% | Intestinal:Body Wt. Ratio, 8-bromo cyclic GMP-induced [3]: 0.1028 ± 0.003 | Intestinal:Body Wt. Ratio, 8-bromo cyclic GMP-induced ([3]; sc): 0.1024 ± 0.003 | effect on basal fluid level (in words) ([4]; sc): not altered | effect on basal intestinal fluid level (in words) ([4]; sc): not affected

O[C@H](CS)[C@H](O)CS (racemic) [dithiothreitol]
effect on biological activity of ST (in words) [5]: loses biological activity promptly

OCCS [2-mercaptoethanol]
effect on biological activity of ST (in words) [5]: loses biological activity promptly

NO [hydroxylamine]
effect on guanylate cyclase (in words) [6]: activates guanylate cyclase | effect on intestinal ion transport (in words) [7]: causes intestinal ion transport alterations similar to those seen with ST

N[C@@H](CCSC[C@H](N)C(=O)O)C(=O)O [Cystathionine, cystathionine]
effect on ST-induced fluid secretion (in words) ([1]; mouse, in vivo): no alteration | effect on ST-induced fluid secretion (in words) ([1]; mouse, in vivo, sc): did not inhibit ST-induced fluid secretion | effect on ST-activated guanylate cyclase activity (in words) ([2]; ST-activated, concentration not given): no effect | effect on basal guanylate cyclase activity (in words) ([2]; concentration not given): no effect | Intestinal:Body Wt. Ratio, 8-bromo cyclic GMP-induced [3]: 0.1043 ± 0.002 | effect on 8-bromo cyclic GMP-induced intestinal secretion (in words) [3]: no alteration | Intestinal:Body Wt. Ratio, 8-bromo cyclic GMP-induced ([3]; sc): 0.1175 ± 0.004 | effect on basal responses (in words) [4]: no alteration | effect on basal secretion (in words) ([4]; sc): nor alter the basal secretory ratio

NCCS [Cysteamine, cysteamine]
P of inhibition of ST-induced secretion (FIG. 2) ([1]; mouse, in vivo): < 0.001 | effect on ST-induced fluid secretion (in words) ([1]; mouse, in vivo): most effective inhibitory agent | effect on ST-induced secretion (in words) ([1]; mouse, in vivo): significantly reduced; also recorded: reduced secretion | intestinal fluid ratio (intestinal weight to remaining body weight), ST-induced ([1]; mouse, in vivo): 0.0804±0.005 | intestinal-fluid ratio ± SEM ([1]; mouse, in vivo): .125 ± 0.003 | intestinal-fluid ratio ± SEM, experiment #1 ([1]; mouse, in vivo): .127 ± .007 | intestinal-fluid ratio ± SEM, experiment #2 ([1]; mouse, in vivo): .119 ± .006 | effect on ST-induced ratio (in words) ([1]; mouse, in vivo, sc): not significantly changed | intestinal fluid ratio (intestinal weight to remaining body weight), ST-induced ([1]; mouse, in vivo, sc): 0.0765±0.003 and 0.0840 ± 0.005 | % Inhibition of ST-activated guanylate cyclase activity [2]: 21% | % Inhibition of ST-activated guanylate cyclase activity ([2]; listed as cysteamine): 21% | effect on basal guanylate cyclase activity (in words) ([2]; 1 mM): did not alter basal guanylate cyclase activity; also recorded: did not affect basal activity | inhibition at 1000 µM [2, 8]: 11 to 21% | inhibition at 1000 µM [2, 9]: 0% | inhibition at 10000 µM [2, 10]: 63% | inhibition at 10000 µM [2, 11]: 15% | Intestinal:Body Wt. Ratio, 8-bromo cyclic GMP-induced [3]: 0.1106 ± 0.010 | Intestinal:Body Wt. Ratio, 8-bromo cyclic GMP-induced ([3]; sc): 0.1071 ± 0.005 | effect on basal secretion (in words) [4]: did not alter basal secretion | effect on basal fluid level (in words) ([4]; sc): not affected

COc1ccc(O)c(C(C)(C)C)c1 [Butylated hydroxyanisole]
effect on ST activation of guanylate cyclase (in words) [6]: significantly reduces | effect on ST-induced intestinal fluid secretion (in words) [7]: significantly reduces

N[C@@H](CS[35S]C[C@H](N)C(=O)O)C(=O)O [^35 S-cystine]
effect on guanylate cyclase (in words) [6]: reversible loss of enzyme activity

N[C@@H](CSSC[C@H](N)C(=O)O)C(=O)O [L-cystine]
effect on ST-induced intestinal secretion (in words) ([1]; mouse, in vivo): significantly reduced | intestinal fluid ratio (intestinal weight to remaining body weight), ST-induced ([1]; mouse, in vivo): 0.0940±0.004 and 0.1288±0.003 | effect on ST-induced secretion (in words) ([1]; mouse, in vivo, sc): neither compound reduced intestinal secretion | intestinal fluid ratio (intestinal weight to remaining body weight), ST-induced ([1]; mouse, in vivo, sc): 0.1115±0.006 | effect on ST-induced guanylate cyclase activity (in words) ([2]; ST-activated, 1 mM): significantly reduced | effect on basal guanylate cyclase activity (in words) ([2]; 1 mM): neither drug affected basal activity | effect on basal guanylate cyclase activity (in words) ([2]; concentration not given): Neither compound inhibited basal guanylate cyclase activity | inhibition at 1000 µM [2, 8]: 39% | inhibition at 1000 µM [2, 9]: 0% | Intestinal:Body Wt. Ratio, 8-bromo cyclic GMP-induced [3]: 0.1191 ± 0.004 | effect on 8-bromo cyclic GMP-induced intestinal secretion (in words) [3]: Neither compound altered cyclic GMP-induced intestinal secretion | Intestinal:Body Wt. Ratio, 8-bromo cyclic GMP-induced ([3]; sc): 0.1043 ± 0.004 | effect on basal secretion (in words) ([4]; sc): Neither agent given s.c. or i.g. significantly altered basal secretion

NCCSSCCN [Cystamine, cystamine]
effect on guanylate cyclase (in words) [6]: very marked effects on guanylate cyclase activity; also recorded: almost completely inactivate | effect on ST-induced secretion (in words) ([1]; mouse, in vivo): did not significantly affect ST-induced secretion | effect on ST-induced secretion (in words) ([1]; mouse, in vivo, sc): reduce ST-induced intestinal secretion; also recorded: significantly reduce secretion; also recorded: significantly reduced ST-induced secretion | intestinal fluid ratio (intestinal weight to remaining body weight), ST-induced ([1]; mouse, in vivo, sc): 0.0935±0.003 and 0.1154± 0.006 | inhibition at 1000 µM [2, 8]: 73% | inhibition at 1000 µM [2, 9]: 45% | inhibition at 10000 µM [2, 10]: 82% | inhibition at 10000 µM [2, 11]: 54% | inhibition at 100 µM ([2]; read-out: reduction in basal guanylate cyclase activity, basal): 13% | inhibition at 100 µM ([2]; read-out: reduction of ST-induced guanylate cyclase activity, ST-activated (6 ST units/ml)): 32% | Intestinal:Body Wt. Ratio, 8-bromo cyclic GMP-induced [3]: 0.1188 ± 0.003 | effect on 8-bromo cyclic GMP-induced intestinal secretion (in words) [3]: no effect | Intestinal:Body Wt. Ratio, 8-bromo cyclic GMP-induced ([3]; sc): 0.1115 ± 0.003 | effect on basal intestinal fluid level (in words) ([4]; sc): did not significantly alter basal intestinal fluid levels

N[C@H](CSSC[C@@H](N)C(=O)O)C(=O)O [D-cystine]
effect on ST-induced intestinal secretion (in words) ([1]; mouse, in vivo): significantly reduced | intestinal fluid ratio (intestinal weight to remaining body weight), ST-induced ([1]; mouse, in vivo): 0.1034±0.004 and 0.1197±0.004 | effect on ST-induced secretion (in words) ([1]; mouse, in vivo, sc): neither compound reduced intestinal secretion | intestinal fluid ratio (intestinal weight to remaining body weight), ST-induced ([1]; mouse, in vivo, sc): 0.1092±0.011 | effect on ST-induced guanylate cyclase activity (in words) ([2]; ST-activated, 1 mM): significantly reduced | effect on basal guanylate cyclase activity (in words) ([2]; 1 mM): neither drug affected basal activity | effect on basal guanylate cyclase activity (in words) ([2]; concentration not given): Neither compound inhibited basal guanylate cyclase activity | inhibition at 1000 µM [2, 8]: 33% | inhibition at 1000 µM [2, 9]: 0% | Intestinal:Body Wt. Ratio, 8-bromo cyclic GMP-induced [3]: 0.1048 ± 0.004 | effect on 8-bromo cyclic GMP-induced intestinal secretion (in words) [3]: Neither compound altered cyclic GMP-induced intestinal secretion | Intestinal:Body Wt. Ratio, 8-bromo cyclic GMP-induced ([3]; sc): 0.1001 ± 0.005 | effect on basal secretion (in words) ([4]; sc): Neither agent given s.c. or i.g. significantly altered basal secretion

N[C@H](CS)C(=O)O [D-cysteine]
intestinal fluid ratio (intestinal weight to remaining body weight), ST-induced ([1]; mouse, in vivo): 0.0768±0.002 and 0.1121±0.005 | effect on ST-induced fluid responses (in words) ([1]; mouse, in vivo, sc): neither D- or L-cysteine inhibited ST-induced fluid responses | % Inhibition of ST-activated guanylate cyclase activity [2]: 16% | effect on basal guanylate cyclase activity (in words) ([2]; 1 mM): did not alter basal guanylate cyclase activity; also recorded: None of the other sulfhydryl compounds (1 mM) affected basal enzyme activity | inhibition at 1000 µM [2, 8]: 11 to 21% | inhibition at 1000 µM [2, 9]: 0% | Intestinal:Body Wt. Ratio, 8-bromo cyclic GMP-induced [3]: 0.1191 ± 0.006 | Intestinal:Body Wt. Ratio, 8-bromo cyclic GMP-induced ([3]; sc): 0.1155 ± 0.005 | effect on basal intestinal fluid level (in words) ([4]; sc): No effect on basal fluid level
